Tests used:
[1] = system: caspase-3, PARP; experiment: Western blot of active caspase-3 and PARP in T-Rex-293 lysates; format: cell-based, human
Description: Western blot analysis and immunofluorescence were performed as previously described (Perez, D., and White, E. J. Cell Biol. 141: 1255-1266 (1998); Perez, D., and White, E. Mol. Cell 6: 53-63 (2000)). The term “Western blot” refers to a method for identifying proteins in a complex mixture; proteins are separated electrophoretically in a gel medium; transferred from the gel to a protein binding sheet or membrane; and the sheet or membrane containing the separated proteins exposed to specific antibodies which bind to, locate, and enable visualization of protein(s) of interest. T-Rex-293 (mazF/pcDNA3) and T-Rex-293 (mazF/mazE) cells were harvested at 0, 24, 48 and 72 hr post-treatment with tetracycline or staurosporine by scraping and centrifugation. All cell pellets were lysed in 2× Laemmli buffer. Cell lysates were subjected to electrophoresis on a 15% SDS-PAGE gel and then transferred onto an Immobilon-P membrane (Millipore, Bedford, Mass.). The blot was incubated with following antibody: anti-active caspase-3 rabbit polyclonal antibody (Cell Signaling Technology, Beverly, Mass.), anti-BAX, anti-BAK rabbit polyclonal antibody (NT) (Upstate Biotechnology Inc., Lake Placid, N.Y.), anti-BID goat polyclonal antibody (R&D Systems, Inc, Minneapolis, Minn.), anti-Bim rabbit polyclonal antibody (Alexis Biochemical, San Diego, Calif.), anti-BCL-2 hamster monoclonal antibody (PharMingen, San Diego, Calif.), anti-BCL-XL mouse monoclonal antibody (Trevigen, Gaithersburg, Md.), anti-MCL-1 rabbit polyclonal antibody (Stressgen Biotechnologies, Victoria, British Columbia, Canada), anti-PARP mouse monoclonal antibody (PharMingen, San Diego, Calif.), anti-PUMA rabbit polyclonal antibody (Nelson, D. A., et al., Genes Dev. 18: 2095-2107 (2004)), anti-E1A monoclonal antibody; anti-actin monoclonal antibody (Oncogene Research Products); and anti-Xpress monoclonal antibody (Invitrogen). An antibody directed to human NBK/BIK was generated by expression of a GST-tagged human NBK/BIK fusion protein encoding an N-terminal 78-amino acid region in bacteria and immunization of rabbits (Cocalico). Western Blots were developed with horseradish peroxidase-conjugated secondary antibodies using the ECL system (Amersham-Pharmacia Biotech, Piscataway, N.J.).

[2] = system: iBMK cells; experiment: MTT assay, viability of iBMK cells; format: cell-based, mouse; settings: for sensitivity to TNF-α-induced cell death (MTT assay): TNF-α/CHX (0.05 μg/ml)
Description: 3-(4,5-dimethylthiazol-2-yl)-2,5-diphenyltetrazolium bromide (MTT) assay to measure the viability of iBMK cells treated with paclitaxel, CHX, or both mouse TNF-α and CHX was performed as previously described (Ioffe, M. L., et al., Prostate 61: 243-247. (2004)).
To test if apoptosis mediated by general translation inhibition was dependent on specific BH3-only proteins, the apoptotic response of puma^−/−, bim^−/−, noxa^−/−, nbk/bik^−/− iBMK cells to translation inhibition was tested with CHX. In addition to W2, D3, X2 or K1 cells, puma^−/−, bim^−/−, noxa^−/− or nbk/bik^−/− cells were treated with increasing concentration of CHX (0.05, 0.5, 1.0, 5.0 and 10.0 μg/ml) for 24 hours to induce translation inhibition and viability was assessed. […] In contrast, when D3, K1 (FIG. 6B) and nbk/bik^−/− (FIG. 6C) cells were treated with CHX, cell viability remained high. […] In contrast, D3 cells were resistant to cell death induced by TNF-α and paclitaxel (FIGS. 6D and E). […] Furthermore, NBK/BIK was not required for TNF-α-mediated apoptosis (FIG. 6D) which signals through tBID (Li, H., et al., Cell 94: 491-501 (1998); Luo, X., et al., Cell 94: 481-490 (1998)), nor was NBK/BIK required for apoptosis induced by taxanes (FIG. 6E) which is dependent on BIM (Bouillet, P., et al., Science 286: 1735-1738 (1999); Tan, T. T., et al., Cancer Cell 7: 227-238. (2005)). These findings support the role for specific BH3-only proteins controlling the response to discrete apoptotic stimuli.

[3] = system: iBMK cells; settings: cited from earlier work
[4] = system: human GAPDH and β-actin mRNA; experiment: Northern blot analysis of cellular mRNA in T-Rex-293 cells; format: cell-based; settings: co-expression of MazE with MazF, T-Rex-293 (mazF/mazE), throughout time course of induction
Description: Northern blot analysis and real-time PCR (RT-PCR) was preformed as previously described (Zhang, Y., et al., Mol. Cell 12: 913-923 (2003); Cuconati, A., et al., Genes Dev. 17: 2922-2932 (2003)). Total RNA from tetracycline-treated (0, 24, 48 and 72 hr) or untreated (0, 24, 48 and 72 hr) T-Rex-293 (mazF/pcDNA3) and T-Rex-293 (mazF/mazE) cells for were isolated through the use of Trizol Reagent (Gibco, Carlsbad, Calif.). For Northern blot analysis, 10 μg of total RNA from each condition was subjected to formaldehyde-agarose gel electrophoresis followed by transfer onto GeneScreen Plus membrane (NEN Life Science Products, Boston, Mass.). The blot was hybridized with ^32P-labeled human GAPDH or β-actin cDNA. One hundred ng of total RNA was subjected to real time RT-PCR with the Taqman EZ-RT PCR kit (PE Applied Biosystems, Lincoln Centre Drive Foster City, Calif.) using recommended conditions provided by the vendor. Primers to analyze the level of human GAPDH mRNA were obtained from Applied Biosystems, and a probe for GAPDH was supplied with 5′ linkage to the reporter dye 2, 7-dimethoxy-4, 5-dichloro-6-carboxy-fluoroecein (JOE), and 3′ linkage to the quencher 6-carboxy-tetramethylrhodamine (TAMURA). β-actin primer sequences were 5′-[…]-3′ and 5′-[…]-3′. β-actin probe sequence was FAM-5′-[…] TTCC-3′-TAMURA. Reactions were carried out in triplicate and the relative amount of human GAPDH and β-actin mRNA was calculated from the difference in fluorescence signal in the 24-, 48- and 72-hr samples compared with the corresponding 0 hr sample.
To assess cellular mRNA levels, total RNA was isolated from whole cells of Tet-treated or -untreated T-Rex-293 cells and subjected to Northern blot analysis using human GAPDH and β-actin cDNA probes. […] Labeled single-stranded DNA fragments complementary to the specific mRNA being sought then are hybridized to the bound mRNA and the label detected by suitable means. […]

[5] = system: human GAPDH and β-actin mRNA; experiment: real-time RT-PCR quantification of mRNA levels in T-Rex-293 cells; format: cell-based; settings: cells expressing both MazE and MazF
Description: Northern blot analysis and real-time PCR (RT-PCR) was preformed as previously described (Zhang, Y., et al., Mol. Cell 12: 913-923 (2003); Cuconati, A., et al., Genes Dev. 17: 2922-2932 (2003)). Total RNA from tetracycline-treated (0, 24, 48 and 72 hr) or untreated (0, 24, 48 and 72 hr) T-Rex-293 (mazF/pcDNA3) and T-Rex-293 (mazF/mazE) cells for were isolated through the use of Trizol Reagent (Gibco, Carlsbad, Calif.). For Northern blot analysis, 10 μg of total RNA from each condition was subjected to formaldehyde-agarose gel electrophoresis followed by transfer onto GeneScreen Plus membrane (NEN Life Science Products, Boston, Mass.). The blot was hybridized with ^32P-labeled human GAPDH or β-actin cDNA. One hundred ng of total RNA was subjected to real time RT-PCR with the Taqman EZ-RT PCR kit (PE Applied Biosystems, Lincoln Centre Drive Foster City, Calif.) using recommended conditions provided by the vendor. […] Reactions were carried out in triplicate and the relative amount of human GAPDH and β-actin mRNA was calculated from the difference in fluorescence signal in the 24-, 48- and 72-hr samples compared with the corresponding 0 hr sample.

[6] = system: T-Rex-293 cells; experiment: 35S-methionine metabolic labeling (protein synthesis); format: cell-based, human; settings: T-Rex-293 (mazF/mazE), Tet-treated
Description: T-Rex-293 (mazF/pcDNA3) and T-Rex-293 (mazF/mazE) cells were incubated for 0, 24 and 48 hr in tetracycline-containing complete DMEM followed by incubation for 1 hr in fresh methionine-free DMEM containing 10 μCi/ml ^35S-methionine. The cells then were washed with PBS twice and lysed in 2× Laemmli buffer. The cell lysate was subjected to SDS-PAGE followed by autoradiography and coomassie blue stain. Signal intensity was measured by Phosphoimager STORM 860 (Molecular Dynamics, Sunnyvale, Calif.).

[7] = system: T-Rex-293 cells; experiment: phase contrast morphology / cytopathic effect; format: cell-based, human; settings: MazE co-expressed with MazF, T-Rex-293
[8] = system: T-Rex-293 cells; experiment: trypan blue exclusion viability; format: cell-based, human; settings: T-Rex-293 (mazF/mazE), Tet-treated
Description: The viability of T-Rex-293 cells was determined by trypan blue exclusion as previously described (Degenhardt, K., et al., J. Biol. Chem. 277: 14127-14134 (2002)). T-Rex-293 (mazF/pcDNA3) and T-Rex-293 (mazF/mazE) cells were cultured for 24 hr before tetracycline treatment and then incubated for 0, 24, 48 and 72 hr at 37° C. in the presence or absence of 10 μg/ml tetracycline. After treatment, cells were collected by centrifugation of the supernatant plus adherent cells, which were harvested by trypsinization. Cells were resuspended in 500 μl of fresh medium containing 0.1% trypan blue solution (Sigma, St. Louis, Mo.) and then counted on a hemocytometer to assess the number of dead blue cells and the total number of cells counted. As a control for apoptotic cell death, T-Rex-293 (mazF/mazE) cells were treated with 1 μM staurosporine (Sigma, St. Louis, Mo.) for same time periods concurrently with tetracycline treatment.

[9] = system: T-Rex-293 cells; experiment: FACS analysis of propidium iodide labeling (sub-G1 peak); format: cell-based, human; settings: T-Rex-293 (mazF/mazE), MazE co-expressed with MazF, 72 hours of induction
Description: T-Rex-293 (mazF/pcDNA3) cells and T-Rex-293 (mazF/mazE) cells treated with tetracycline for 0, 24, 48 and 72 hr were harvested by trypsinization, pelleted by centrifugation and resuspended in PBS. The cells were fixed with ice-cold 70% ethanol for 30 min and stained with propidium iodide (10 μg/ml) and RNase A (100 μg/ml) overnight. The cells were analyzed on a Becton Dickinson FACSCalibur system (San Jose, Calif.).

[10] = system: iBMK cells; experiment: β-galactosidase assay, viability of iBMK cells co-expressing LacZ; format: cell-based, mouse; settings: MazE transiently co-expressed with MazF in W2 and X2 cells
Description: β-galactosidase assays to determine the viability of iBMK cells co-expressing LacZ and MazF were performed as previously described (Han, J., Sabbatini, P., and White, E. Mol. Cell. Biol. 16: 5857-5864 (1996)). W2, D3, X2 and K1 co-transfected with pcDNA6/His/LacZ and pcDNA4/TO/mazF or pcDNA3 for 48 hr were fixed in 1% glutaraldehyde and then stained with 0.2% X-gal solution at 37° C. for 24 hr. β-Galactosidase positive blue cells and the total number of cells (approximately 200 cells) were independently counted on a 6-cm diameter dish.

[11] = W2 and three independent nbk/bik−/− iBMK cell lines

CN[C@@H]1C[C@H]2O[C@@](C)([C@@H]1OC)n1c3ccccc3c3c4c(c5c6ccccc6n2c5c31)C(=O)NC4 [staurosporine, reference compound]
active caspase-3 (Western blot) ([1]; extracts from T-Rex-293 (mazF/mazE) cells treated with 1 μM staurosporine): detected

C[C@@H]1C[C@@H]([C@H](O)CC2CC(=O)NC(=O)C2)C(=O)[C@@H](C)C1 [CHX, cycloheximide]
cell viability (MTT assay) ([2]; D3, K1 and nbk/bik−/− cells, CHX 0.05-10.0 μg/ml for 24 hours): remained high
survival (MTT assay) ([2]; W2, X2, puma−/−, bim−/− and noxa−/− cells, CHX 0.05-10.0 μg/ml for 24 hours): decreased in a dose-dependent manner

CC(=O)O[C@H]1C(=O)[C@@]2(C)[C@H]([C@H](OC(=O)c3ccccc3)[C@]3(O)C[C@H](OC(=O)[C@H](O)[C@@H](NC(=O)c4ccccc4)c4ccccc4)C(C)=C1C3(C)C)[C@]1(OC(C)=O)CO[C@@H]1C[C@@H]2O [paclitaxel]
sensitivity to paclitaxel-induced cell death (MTT assay) ([2]; D3 cells): resistant
sensitivity to paclitaxel-induced cell death (MTT assay) [2, 11]: clearly sensitive

TNF-α
sensitivity to TNF-α-induced cell death (MTT assay) ([2]; D3 cells): resistant
sensitivity to TNF-α-induced cell death (MTT assay) [2, 11]: clearly sensitive
TNF-α-induced apoptosis ([3]; D3 iBMK cells): resistant
apoptosis induction ([3]; W2, X2, and K1 iBMK cells): induces apoptosis

B1: MazE: labile E. coli antitoxin that antagonizes the endoribonuclease activity of MazF; expressed from pcDNA3/mazE together with MazF (protein, UniProt P0AE72 1-82, looked up)
Antitoxin MazE: MIHSSVKRWGNSPAVRIPATLMQALNLNIDDEVKIDLVDGKLIIEPVRKEPVFTLAELVNDITPENLHENIDWGEPKDKEVW
levels of both GAPDH and β-actin mRNAs (Northern blot) [4]: maintained
levels of both GAPDH and β-actin mRNAs (real-time RT-PCR) [5]: constant levels
effect of MazE co-expression on MazF inhibition of protein synthesis (35S-methionine incorporation) [6]: clearly prevented the inhibitory effect of MazF
cell number and morphology [7]: maintained
effect of co-expression of MazE with MazF on viability (trypan blue exclusion) [8]: conferred resistance to MazF-mediated killing
sub-G1 peak [9]: 11.4%
activation of caspase-3 (Western blot) ([1]; co-expression of MazE with MazF, Tet-treated T-Rex-293 (mazF/mazE)): inhibited
cleaved PARP (Western blot) ([1]; extracts of cells expressing both MazE and MazF): not present
effect of MazE on MazF-induced cell death (β-galactosidase assay) [10]: significantly repressed MazF-induced cell death
